Experimental findings from ChEMBL document CHEMBL3046241, “Synthesis and evaluation of 2-amino-5-sulfanyl-1,3,4-thiadiazoles as antidepressant, anxiolytic, and anticonvulsant agents” (Med Chem Res, 2009) are described below.

The source made the active and inactive calls. No cut-off for these calls is given here.

The subject of data set [1] is Mus musculus. Briefly: Antidepressant activity in ip dosed Mus musculus Swiss albino (mouse) assessed as duration of immobility measured after 1 hr by forced swim test relative to pretreatment. It counts as functional.
Data set [2] relates to Mus musculus. Briefly: Anticonvulsant activity against maximal electroshock-induced seizures in Mus musculus Swiss albino (mouse) assessed as time duration of tonic limb extensor at 40 mg/kg. It counts as functional. A general note: The maximal electroshock test induces tonic seizures with an electrical stimulus.
The test system of data set [3] is Mus musculus. Briefly: Anticonvulsant activity against maximal electroshock-induced seizures in Mus musculus Swiss albino (mouse) assessed as animals protected at 40 mg/kg. It counts as functional.
For data set [4], the system named is Mus musculus. Briefly: Toxicity in Mus musculus Swiss albino (mouse) assessed as mortality at 25 mg/kg, po. It counts as organism-based. Details: dose 25 mg/kg, route oral. As to conditions: in vivo.
Data set [5] relates to Mus musculus. Briefly: Anticonvulsant activity against pentylenetetrazole-induced seizures in Mus musculus Swiss albino (mouse) assessed as onset of seizures at 25 mg/kg, po administered 1 hr prior challenge. The format is functional.
Data set [6] deals with Mus musculus. Nature of the data set: Anticonvulsant activity against maximal electroshock-induced seizures in Mus musculus Swiss albino (mouse) assessed as time duration of tonic limb extensor at 25 mg/kg. It counts as functional.
Data set [7] deals with Mus musculus. Briefly: Antidepressant activity in Mus musculus Swiss albino (mouse) assessed as duration of immobility at 25 mg/kg, ip measured after 1 hr by forced swim test test relative to pretreatment. It counts as functional. The following applies: route intraperitoneal.
For data set [8], the system named is Mus musculus. Briefly: Anticonvulsant activity against maximal electroshock-induced seizures in Mus musculus Swiss albino (mouse) assessed as animals protected at 25 mg/kg. The format is functional.
The test system of data set [9] is Mus musculus. Nature of the data set: Anxiolytic activity in Mus musculus Swiss albino (mouse) assessed as time spent in light chamber at 25 mg/kg by light-dark box test. The format is functional.
Data set [10] is filed under the species Mus musculus. Briefly: Anxiolytic activity in Mus musculus Swiss albino (mouse) assessed as time spent in open arm by elevated plus maze test. It counts as functional.
The subject of data set [11] is Mus musculus. Nature of the data set: Antidepressant activity in Mus musculus Swiss albino (mouse) assessed as as increase in mobile phase at 25 mg/kg, ip measured after 1 hr by tail suspension test. The format is functional. As to conditions: route intraperitoneal.
The test system of data set [12] is Mus musculus. Nature of the data set: Anticonvulsant activity against pentylenetetrazole-induced seizures in Mus musculus Swiss albino (mouse) assessed as onset of seizures at 4 mg/kg, po administered 1 hr prior challenge. It counts as functional, organism-based. Details: dose 4 mg/kg.
Data set [13] has as its system Mus musculus. Nature of the data set: Anxiolytic activity in Mus musculus Swiss albino (mouse) assessed as time spent in light chamber at 2 mg/kg by light-dark box test. It counts as functional.
The test system of data set [14] is Mus musculus. Nature of the data set: Toxicity in Mus musculus Swiss albino (mouse) assessed as mortality at 4 mg/kg, po. The format is organism-based. Further details: dose 4 mg/kg, route oral. The following applies: in vivo.

For the molecule `CN(C)CCCN1c2ccccc2CCc2ccccc21.Cl` [IMIPRAMINE HYDROCHLORIDE], the Activity in [1] is -47.48%.
Turning to `O=C1NC(=O)C(c2ccccc2)(c2ccccc2)N1` [PHENYTOIN], the Time in data set [2] was determined as 0 s. Moreover, in data set [3], the Activity was 100%.
Take `O=C(Nc1nnc(Sc2ccc(F)cc2)s1)c1ccccc1`: the Activity result is on record as “Non-toxic” in data set [4], -20.3% in [7], 0% in data set [8] and 28.45% in data set [11]. The Time in [5] turned out to be 91.416 s; in data set [6] it was 6.37 s; in [9], 153.66 s; in data set [10], 32.694 s.
`O=C(Nc1nnc(Sc2ccc(Br)cc2)s1)c1ccccc1`: the Activity result in data set [4] was “Toxic”; in data set [7], 1.1%; in data set [8], 0%; in data set [11], 12%. Also, the Time in [5] turned out to be 78.27 s; in [6] it was 7.96 s; in [9] it was 153.16 s; in [10], 20.88 s.
As to `NS(=O)(=O)c1ccc(Sc2nnc(NC(=O)c3ccccc3)s2)cc1`, the Activity result is recorded as “Toxic” in [4], -33.22% in data set [7], 0% in data set [8] and 49.86% in [11]. Further, the Time is reported as 86.98 s in data set [5], 6.7 s in data set [6], 163.66 s in data set [9] and 38.5 s in data set [10].
In the case of `O=C(Nc1nnc(Sc2ccc(C(Cl)(Cl)Cl)cc2)s1)c1ccccc1`, the Activity result in data set [4] is “Non-toxic”; in [7] it was -22.15%; in [8], 0%; in data set [11], 30.7%. Also, the Time stood at 71.21 s in [5], 7.08 s in data set [6], 152.33 s in [9] and 20.38 s in [10].
With `O=C(Nc1nnc(Sc2ccc(C(F)(F)F)cc2)s1)c1ccccc1`, the Activity result in data set [4] was “Toxic”; in data set [7] it was -29.78%; in data set [8], 0%; in [11], 46.93%. The Time came to 81.74 s in data set [5], 6.18 s in [6], 163 s in data set [9] and 29.86 s in [10].
Turning to `CN1C(=O)CN=C(c2ccccc2)c2cc(Cl)ccc21` [DIAZEPAM], in [12], the result was Active. The Time in data set [13] was 193 s; in data set [10] it was 58.76 s. The Activity entry in [14] was “Non-toxic”.
As to `Cc1ccc(Sc2nnc(NC(=O)c3ccccc3)s2)cc1`, the Activity entry in [4] was “Non-toxic”; in [7] it was 1.35%; in data set [8], 0%; in data set [11], 17.26%. The Time in [5] stood at 78.35 s; in data set [6], 7.35 s; in data set [9], 143 s; in [10] it was 31.13 s.
As for `O=C(Nc1nnc(Sc2ccc(S(=O)(=O)Cl)cc2)s1)c1ccccc1`, the Activity result in data set [4] is on record as “Non-toxic”; in data set [7] it was -33.58%; in [8] it was 0%; in data set [11], 49.29%. The Time in data set [5] was determined as 102.26 s; in [6], 6.25 s; in data set [9] it was 166.66 s; in data set [10], 34.11 s.
